Holding throughout (assay): NCI tumour cell line growth inhibition, 48 h
The subject of experiment [1] is MDA-N.
Experiment [2] relates to DMS 273 small cell lung.
For experiment [3], the system named is HOP-18 NSCLC.
Experiment [4] has as its system DMS 114 small cell lung.
Experiment [5] concerns KM20L2 colon.
Experiment [6] has as its system XF 498 CNS.
In experiment [7] the test system is LXFL 529 NSCLC.
Experiment [8] deals with RXF-631 renal.
The test system of experiment [9] is SNB-78 CNS.
The test system of experiment [10] is SN12K1 renal.
Experiment [11] deals with P388 leukemia.
In experiment [12] the test system is P388/ADR leukemia.

Values joined by “and” are separate entries in the source; they are usually repeats but may differ in a detail not shown here. Identical values can stand only once.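 Protocol summary: plate cells (96-well), add compound at 5 concentrations, incubate 48 h, interpolate endpoints linearly. GI50 marks 50% less growth. The concentration for full growth arrest is given as TGI.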

`CC12CC(OC(=O)[C@]1(C)O)[C@@H]([C@]1(O)CC[C@H]3[C@@H]4C[C@H]5O[C@]56[C@@H](O)C=CC(=O)[C@]6(C)[C@H]4CC[C@@]31C)C2` (stereo partly specified): the TGI in experiment [1] came out at 26.9 µM.
With `COC(=O)C1=C(O)c2cc3c(cc2[C@H](c2cc(OC)c(OC)c(OC)c2)C1C(=O)OC)OCO3` (stereo partly specified), the TGI was above 100 µM in experiment [2]; 89.4 µM in experiment [3]; 68.8 µM in experiment [4]; above 100 µM in experiment [5]; 70 µM in experiment [6]; above 100 µM in experiment [7]. The TGI in experiment [8] and in [9] was above 100 µM throughout.
As to `CSC1(SC2=NCCN2)SC2(NCCN2)S1`, the TGI in experiment [1] worked out at 49.1 µM.
For `Cc1ccc(Sc2ccc(C)cc2[N+](=O)[O-])c([N+](=O)[O-])c1`, the TGI in experiment [2], in experiment [3], in experiment [4], in experiment [5], in [6] and in experiment [7] was above 100 µM in each case. Further, in [9], the TGI is above 100 µM.
`CC1CCC(C(C)C)C(O[C@@H]2OC(=O)C[C@@H]2Sc2ccccc2)C1` (stereo partly specified): the TGI in experiment [2] worked out at 36.7 µM; in [4], 46.9 µM; in experiment [7], 46.1 µM; in [8] it was 69.8 µM; in experiment [9], 73.1 µM.
Turning to `C=C1CCc2occ(C)c2C2C1C1=C(CC(C)C1=O)C1OC12C` (stereo unspecified), the TGI is 6.77 µM in experiment [3]; above 100 µM in experiment [4]; above 100 µM in experiment [5]; above 100 µM in [6]; above 100 µM in [7]; above 100 µM in [9].
As for `O=C1CCC2(c3ccccc3)Nc3ncccc3N12` (stereo unspecified), the TGI in experiment [4], in [5], in [6], in [7] and in experiment [9] was above 100 µM in each case.
`CC#CC1C(OC(=O)c2ccccc2)CCCC1(CI)N=[N+]=[N-]` (stereo unspecified): the TGI is above 100 µM in experiment [2]; above 100 µM in experiment [3]; 99.2 µM in [4]; above 100 µM in experiment [5]; 78.7 µM in experiment [6]; above 100 µM in experiment [7]. The molecule also yielded a TGI in [9] above 100 µM.
In the case of `c1ccc(P(CCP(CCP(c2ccccc2)c2ccccc2)c2ccccc2)CCP(c2ccccc2)c2ccccc2)cc1` (stereo unspecified), in [1], the GI50 was > 10 µM and 3.35 µM; the TGI is above 10 µM.
Turning to `CS/C(C)=N/OC(=O)NCCCCNc1ccc(N=[N+]=[N-])cc1`, the TGI was above 100 µM in experiment [3]; 43.2 µM in experiment [4]; above 100 µM in experiment [5]; 52 µM in experiment [6]; above 100 µM in [7]; 31.4 µM in experiment [8]. The molecule also displayed a TGI in experiment [9] above 100 µM.
Turning to `C=C1CCC2[C@@H](CCC3[C@]2(C)CCC[C@]3(C)C(=O)OC)C1CCO` (stereo partly specified), the TGI in experiment [2] stood at 24.9 µM; in [3], 29.9 µM; in [4] it was 20.3 µM; in [5], 22.8 µM; in [6], 22.6 µM; in experiment [7] it was 21 µM. The same molecule gave a TGI in [9] of 36.3 µM.
Take `N.N.NCCCCCCN.O=C([O-])CC(=O)[O-].O=C([O-])CC(=O)[O-].[Pt+4].[Pt+4]`: the GI50 in experiment [2] was 40.8 µM; in experiment [3], above 100 µM; in experiment [5] it was above 100 µM; in experiment [7], above 100 µM; in experiment [9] it was above 100 µM. Also, the TGI in experiment [2], in experiment [3], in experiment [5], in [7] and in [9] was above 100 µM each time.
Take `COc1ccc(/C=C2\CCC(CN(C)C)C2=O)cc1OC` (stereo unspecified): the TGI in experiment [2] is 29.8 µM; in [3], 35.1 µM; in [4] it was 34.3 µM; in experiment [5], 32.3 µM; in [6] it was 26.3 µM; in [7], 6.7 µM. Moreover, the results for the TGI in [8] and in experiment [9] were 16.3 µM and 66.4 µM, respectively.
With `OCC1OC(n2cnc3c(=S)nc[nH]c32)C(O)C1O` (stereo unspecified), the TGI is above 2310 µM in experiment [2]; above 2500 µM in experiment [3]; 2490 µM in experiment [4]; above 2500 µM in experiment [5]; above 2500 µM in experiment [10]; above 2500 µM in experiment [1]. The TGI is above 1400 µM in [6], above 2500 µM in [11], above 2500 µM in experiment [9] and above 2500 µM in experiment [12].
As for `CC(=O)NC1CC2Oc3ccc(C)cc3C(C)(O2)C1O` (stereo unspecified), the TGI in experiment [2], in experiment [3], in experiment [4] and in experiment [6] was above 100 µM throughout.
In the case of `COC(=O)C1=C(C(=O)OC)SC(=C(N=Nc2ccccc2)c2ccccc2)S1`, the TGI in experiment [2], in experiment [3], in experiment [5], in [7], in experiment [8] and in experiment [9] was above 100 µM each time.
In the case of `C[C@@H](NC1CCC[C@H]1O)c1ccccc1` (stereo partly specified), the TGI in experiment [2], in experiment [3], in experiment [4], in [5], in [6] and in experiment [7] was above 100 µM each time. In [9], this molecule registered a TGI above 100 µM.

The record behind these values is PubChem BioAssay (NCI).
